From ChEMBL document CHEMBL3885861, “Open TG-GATES”

Species on record: Rattus norvegicus
Experiment: Open TG-GATES - Regimen: Single
Type: toxicity, organism-based, Sprague-Dawley
Parameters: regimen Single, gender Male, age 6 weeks
Conditions: in vivo, po, 45 mg/kg, route gavage, dose level Low; for APTT / Bas / Eos / Fbg / Hb / Ht / Lym / MCH / MCHC / MCV / Mono / Neu / PT / Plat / RBC / Ret / WBC: tissue Blood; for KIDNEY_L / KIDNEY_R / KIDNEY_TOTAL: tissue Kidney; for LIVER: tissue Liver; for ALP / ALT / AST / BUN / CRE / DBIL / GLC / K / LDH / Na / PL / RALB / TBIL / TC / TG / TP / gamma-GTP: tissue Plasma

CC(CCc1ccccc1)NCC(O)c1ccc(O)c(C(N)=O)c1 (stereo unspecified) [LABETALOL]
TERMINAL_BW (3 h): 214.4 g
APTT (3 h): 16 s
Bas (3 h): 0%
Eos (3 h): 1%
Fbg (3 h): 265.8 mg/dL
Hb (3 h): 13 g/dL
Ht (3 h): 38.2%
Lym (3 h): 78.2%
MCH (3 h): 22.2 pg
MCHC (3 h): 33.9%
MCV (3 h): 65.5 fL
Mono (3 h): 3.2%
Neu (3 h): 16.6%
PT (3 h): 13.1 s
Plat (3 h): 103.6 x10_4/uL
RBC (3 h): 584 x10_4/ul
Ret (3 h): 8.6%
WBC (3 h): 63.4 x10_2/uL
KIDNEY_L (3 h): 0.9 g
KIDNEY_R (3 h): 0.9 g
KIDNEY_TOTAL (3 h): 1.8 g
LIVER (3 h): 9.7 g
ALP (3 h): 1420.4 IU/L
ALT (3 h): 42.2 IU/L
AST (3 h): 70.8 IU/L
BUN (3 h): 11.6 mg/dL
CRE (3 h): 0.2 mg/dL
DBIL (3 h): 0.014 mg/dL
GLC (3 h): 190.2 mg/dL
K (3 h): 3.8 meq/L
LDH (3 h): 56.2 IU/L
Na (3 h): 143 meq/L
PL (3 h): 147.4 mg/dL
RALB (3 h): 2.6 g/dL
TBIL (3 h): 0.044 mg/dL
TC (3 h): 83.6 mg/dL
TG (3 h): 60.4 mg/dL
TP (3 h): 5.4 g/dL
gamma-GTP (3 h): 1 IU/L
TERMINAL_BW (6 h): 214.9 g
APTT (6 h): 16.1 s
Bas (6 h): 0%
Eos (6 h): 1%
Fbg (6 h): 287.6 mg/dL
Hb (6 h): 12.8 g/dL
Ht (6 h): 37.8%
Lym (6 h): 75.6%
MCH (6 h): 21.4 pg
MCHC (6 h): 33.8%
MCV (6 h): 63.3 fL
Mono (6 h): 2.4%
Neu (6 h): 20.6%
PT (6 h): 13.1 s
Plat (6 h): 116.3 x10_4/uL
RBC (6 h): 596.4 x10_4/ul
Ret (6 h): 8.2%
WBC (6 h): 76.9 x10_2/uL
KIDNEY_L (6 h): 0.9 g
KIDNEY_R (6 h): 0.9 g
KIDNEY_TOTAL (6 h): 1.9 g
LIVER (6 h): 8.9 g
ALP (6 h): 1402 IU/L
ALT (6 h): 40.2 IU/L
AST (6 h): 73 IU/L
BUN (6 h): 9.6 mg/dL
CRE (6 h): 0.2 mg/dL
DBIL (6 h): 0.01 mg/dL
GLC (6 h): 180.4 mg/dL
K (6 h): 3.9 meq/L
LDH (6 h): 46 IU/L
Na (6 h): 142.8 meq/L
PL (6 h): 135.8 mg/dL
RALB (6 h): 2.5 g/dL
TBIL (6 h): 0.038 mg/dL
TC (6 h): 82.4 mg/dL
TG (6 h): 50.6 mg/dL
TP (6 h): 5.4 g/dL
gamma-GTP (6 h): 1.2 IU/L
TERMINAL_BW (9 h): 212.6 g
APTT (9 h): 16.8 s
Bas (9 h): 0%
Eos (9 h): 1%
Fbg (9 h): 293.4 mg/dL
Hb (9 h): 12.9 g/dL
Ht (9 h): 38.5%
Lym (9 h): 79.4%
MCH (9 h): 21.3 pg
MCHC (9 h): 33.7%
MCV (9 h): 63.3 fL
Mono (9 h): 1.8%
Neu (9 h): 17.2%
PT (9 h): 13.3 s
Plat (9 h): 106.4 x10_4/uL
RBC (9 h): 608.2 x10_4/ul
Ret (9 h): 8.2%
WBC (9 h): 70.4 x10_2/uL
KIDNEY_L (9 h): 0.9 g
KIDNEY_R (9 h): 0.9 g
KIDNEY_TOTAL (9 h): 1.9 g
LIVER (9 h): 8.1 g
ALP (9 h): 1452.8 IU/L
ALT (9 h): 43.6 IU/L
AST (9 h): 69 IU/L
BUN (9 h): 9.6 mg/dL
CRE (9 h): 0.2 mg/dL
DBIL (9 h): 0.008 mg/dL
GLC (9 h): 184.2 mg/dL
K (9 h): 3.9 meq/L
LDH (9 h): 46.2 IU/L
Na (9 h): 143.6 meq/L
PL (9 h): 136 mg/dL
RALB (9 h): 2.5 g/dL
TBIL (9 h): 0.038 mg/dL
TC (9 h): 81.8 mg/dL
TG (9 h): 39.6 mg/dL
TP (9 h): 5.3 g/dL
gamma-GTP (9 h): 1 IU/L
TERMINAL_BW (24 h): 226.1 g
APTT (24 h): 16.2 s
Bas (24 h): 0%
Eos (24 h): 1.2%
Fbg (24 h): 284.4 mg/dL
Hb (24 h): 13.5 g/dL
Ht (24 h): 39.1%
Lym (24 h): 78%
MCH (24 h): 21.9 pg
MCHC (24 h): 34.6%
MCV (24 h): 63.3 fL
Mono (24 h): 2.8%
Neu (24 h): 17.6%
PT (24 h): 12.8 s
Plat (24 h): 112.9 x10_4/uL
RBC (24 h): 618.6 x10_4/ul
Ret (24 h): 8.2%
WBC (24 h): 80.8 x10_2/uL
KIDNEY_L (24 h): 1 g
KIDNEY_R (24 h): 1 g
KIDNEY_TOTAL (24 h): 1.9 g
LIVER (24 h): 10.4 g
ALP (24 h): 1933.8 IU/L
ALT (24 h): 53.2 IU/L
AST (24 h): 82.2 IU/L
BUN (24 h): 14.8 mg/dL
CRE (24 h): 0.2 mg/dL
DBIL (24 h): 0.018 mg/dL
GLC (24 h): 181.8 mg/dL
K (24 h): 4.1 meq/L
LDH (24 h): 87.4 IU/L
Na (24 h): 142 meq/L
PL (24 h): 150.8 mg/dL
RALB (24 h): 2.7 g/dL
TBIL (24 h): 0.032 mg/dL
TC (24 h): 81.8 mg/dL
TG (24 h): 119 mg/dL
TP (24 h): 5.7 g/dL
gamma-GTP (24 h): 1.2 IU/L
